# Activity calls are given as the source filed them.
# Assays:
# [1] = test system: CHO-K1; experiment: (§1) Counterscreen for antagonists of the orexin 1 receptor (OX1R; HCRTR1): Homogeneous time resolved fluorescence (HTRF)-based cell-based dose response assay to identify antagonists of the parental CHO-K1 cell line. [Related pubchem assays (depositor defined):AID434989, AID435008, AID463079, AID485270, AID492963, AID492964, AID492965, AID493232, AID504699, AID504701]; format: functional; conditions: Cricetulus griseus
# [2] = as §1, with “Fluorescence-based” for “Homogeneous time resolved fluorescence (HTRF)-based”, “cell-based high throughput” for “cell-based”, “CHO” for “CHO-K1”; format: functional
# [3] = target: T1, Orexin/Hypocretin receptor type 1 (Homo sapiens, UniProt O43613); experiment: Homogeneous Time Resolved Fluorescence (HTRF)-based cell-based high throughput dose response assay for antagonists of the orexin 1 receptor (OX1R; HCRTR1). [Related pubchem assays (depositor defined):AID434989, AID435008, AID463079, AID485270, AID492963, AID492964, AID492965, AID493232, AID504717, AID504718]; format: functional
# T1 sequence (O43613 whole entry): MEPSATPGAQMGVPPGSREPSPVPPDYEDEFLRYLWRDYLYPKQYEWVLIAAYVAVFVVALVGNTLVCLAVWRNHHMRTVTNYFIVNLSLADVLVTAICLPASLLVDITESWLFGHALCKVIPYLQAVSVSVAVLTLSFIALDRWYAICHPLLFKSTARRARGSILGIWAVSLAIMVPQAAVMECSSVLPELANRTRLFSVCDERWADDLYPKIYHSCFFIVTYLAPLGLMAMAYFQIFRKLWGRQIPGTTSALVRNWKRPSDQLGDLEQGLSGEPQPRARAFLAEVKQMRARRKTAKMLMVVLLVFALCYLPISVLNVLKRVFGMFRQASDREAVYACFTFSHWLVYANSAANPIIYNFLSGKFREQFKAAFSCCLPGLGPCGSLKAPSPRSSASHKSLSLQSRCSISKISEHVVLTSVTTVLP
# [4] = target: T1, Orexin/Hypocretin receptor type 1; experiment: Fluorescence-based cell-based high throughput dose response assay for antagonists of the orexin 1 receptor (OX1R; HCRTR1). [Related pubchem assays (depositor defined):AID434989, AID435008, AID463079, AID485270, AID492963, AID492964, AID492965, AID493232, AID504717, AID504718]; format: functional
# [5] = target: T2, Orexin receptor type 2 (Homo sapiens, UniProt O43614); experiment: Counterscreen assay for antagonists of the orexin 1 receptor (OX1R; HCRTR1): Fluorescence-based cell-based dose response assay for antagonists of the orexin 2 receptor (OX2R; HCRTR2), run by assay provider.; format: functional
# T2 sequence (O43614 whole entry): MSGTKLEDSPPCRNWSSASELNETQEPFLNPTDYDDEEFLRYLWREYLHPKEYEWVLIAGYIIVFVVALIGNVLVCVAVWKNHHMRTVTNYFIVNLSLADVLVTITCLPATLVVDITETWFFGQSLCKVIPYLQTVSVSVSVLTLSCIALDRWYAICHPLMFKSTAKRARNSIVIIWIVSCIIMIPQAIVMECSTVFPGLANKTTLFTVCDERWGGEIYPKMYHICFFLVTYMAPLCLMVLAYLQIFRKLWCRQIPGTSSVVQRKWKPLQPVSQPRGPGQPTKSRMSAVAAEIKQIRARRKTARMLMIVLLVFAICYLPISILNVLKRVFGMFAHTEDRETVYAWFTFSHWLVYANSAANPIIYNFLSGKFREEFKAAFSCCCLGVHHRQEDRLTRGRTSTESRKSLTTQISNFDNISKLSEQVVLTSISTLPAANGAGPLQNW
# [6] = target: T2, Orexin receptor type 2; experiment: Counterscreen assay for antagonists of the orexin 1 receptor (OX1R; HCRTR1): Homogeneous Time Resolved Fluorescence (HTRF)-based cell-based dose response assay for antagonists of the orexin 2 receptor (OX2R; HCRTR2), run by assay provider.; format: functional
# [7] = target: Glucose-6-phosphate 1-dehydrogenase (Homo sapiens, UniProt P11413); experiment: inhibition of Homo sapiens G6PD, dose series – biochemical, fluorescence, selectivity assay for P. falciparum G6PD inhibitor project, dose response (AID 504792); format: functional
# [8] = target: T3, Apoptotic protease-activating factor 1 (Homo sapiens, UniProt O14727); format: functional;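 as to EC50 Mean: caspase-3 cleavage of fluorogenic Rh110 DEVD substrate downstream of apoptosome activation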
# T3 sequence (O14727 whole entry): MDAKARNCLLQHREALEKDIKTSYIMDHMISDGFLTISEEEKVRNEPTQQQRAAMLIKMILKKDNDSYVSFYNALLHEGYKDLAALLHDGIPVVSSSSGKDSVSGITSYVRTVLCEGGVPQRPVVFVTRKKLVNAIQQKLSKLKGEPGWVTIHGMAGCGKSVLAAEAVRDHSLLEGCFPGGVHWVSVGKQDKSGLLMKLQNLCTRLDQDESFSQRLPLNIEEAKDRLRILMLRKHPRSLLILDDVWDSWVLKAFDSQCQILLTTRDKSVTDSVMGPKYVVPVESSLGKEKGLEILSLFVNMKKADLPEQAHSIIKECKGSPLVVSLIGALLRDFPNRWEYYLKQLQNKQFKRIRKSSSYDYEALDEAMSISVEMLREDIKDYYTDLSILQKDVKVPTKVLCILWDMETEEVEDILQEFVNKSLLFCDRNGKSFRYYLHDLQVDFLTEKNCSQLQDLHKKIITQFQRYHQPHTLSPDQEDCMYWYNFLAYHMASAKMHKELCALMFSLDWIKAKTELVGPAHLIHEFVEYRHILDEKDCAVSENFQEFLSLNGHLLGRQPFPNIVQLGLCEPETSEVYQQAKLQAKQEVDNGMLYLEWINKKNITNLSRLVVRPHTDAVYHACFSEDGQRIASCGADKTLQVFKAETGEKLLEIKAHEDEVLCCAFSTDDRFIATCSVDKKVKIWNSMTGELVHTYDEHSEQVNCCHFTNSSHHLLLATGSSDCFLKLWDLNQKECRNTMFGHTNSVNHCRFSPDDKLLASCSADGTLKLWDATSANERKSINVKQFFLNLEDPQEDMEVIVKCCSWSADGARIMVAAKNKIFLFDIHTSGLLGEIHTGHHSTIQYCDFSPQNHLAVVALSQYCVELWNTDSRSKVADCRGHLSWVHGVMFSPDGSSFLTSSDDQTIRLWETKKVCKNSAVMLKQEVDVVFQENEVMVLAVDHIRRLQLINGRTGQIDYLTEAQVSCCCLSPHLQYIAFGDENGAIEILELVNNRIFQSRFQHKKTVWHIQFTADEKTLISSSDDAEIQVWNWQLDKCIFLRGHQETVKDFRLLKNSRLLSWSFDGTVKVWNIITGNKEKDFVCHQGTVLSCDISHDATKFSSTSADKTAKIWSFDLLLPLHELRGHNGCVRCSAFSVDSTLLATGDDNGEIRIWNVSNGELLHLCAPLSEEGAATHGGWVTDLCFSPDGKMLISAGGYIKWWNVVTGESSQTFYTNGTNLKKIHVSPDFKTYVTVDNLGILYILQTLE
# [9] = viability loss in HeLa cells – cytotoxicity control for MgcRacGAP inhibitor project, dose response (AID 624300); format: functional
# [10] = target: T4, Rac GTPase-activating protein 1 (Homo sapiens, UniProt Q9H0H5); experiment: blockers of MgcRacGAP-driven Rac1 GTP hydrolysis – biochemical, ADP Hunter fluorescence, primary and confirmatory, confirmation (AID 624330); format: functional
# T4 sequence (Q9H0H5 whole entry): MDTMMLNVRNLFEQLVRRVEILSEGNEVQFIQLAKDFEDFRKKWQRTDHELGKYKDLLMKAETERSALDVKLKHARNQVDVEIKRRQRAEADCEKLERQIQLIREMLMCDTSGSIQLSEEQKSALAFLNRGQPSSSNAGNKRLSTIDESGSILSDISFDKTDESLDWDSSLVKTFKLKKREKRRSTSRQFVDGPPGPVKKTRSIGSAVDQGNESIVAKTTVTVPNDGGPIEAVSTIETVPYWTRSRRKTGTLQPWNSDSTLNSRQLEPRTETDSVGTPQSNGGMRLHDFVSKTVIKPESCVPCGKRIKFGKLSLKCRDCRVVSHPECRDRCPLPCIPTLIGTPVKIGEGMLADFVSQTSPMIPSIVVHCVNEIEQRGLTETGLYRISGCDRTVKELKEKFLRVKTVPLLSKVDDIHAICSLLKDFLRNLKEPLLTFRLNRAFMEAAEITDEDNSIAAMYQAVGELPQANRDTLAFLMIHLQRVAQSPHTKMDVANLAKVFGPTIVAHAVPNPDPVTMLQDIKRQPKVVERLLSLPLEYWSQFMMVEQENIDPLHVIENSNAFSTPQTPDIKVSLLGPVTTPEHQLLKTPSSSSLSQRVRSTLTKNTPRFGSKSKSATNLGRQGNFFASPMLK
# [11] = target: T5, DNA repair protein RAD52 homolog (Homo sapiens, UniProt P43351); format: functional, biochemical
# T5 sequence (P43351 whole entry): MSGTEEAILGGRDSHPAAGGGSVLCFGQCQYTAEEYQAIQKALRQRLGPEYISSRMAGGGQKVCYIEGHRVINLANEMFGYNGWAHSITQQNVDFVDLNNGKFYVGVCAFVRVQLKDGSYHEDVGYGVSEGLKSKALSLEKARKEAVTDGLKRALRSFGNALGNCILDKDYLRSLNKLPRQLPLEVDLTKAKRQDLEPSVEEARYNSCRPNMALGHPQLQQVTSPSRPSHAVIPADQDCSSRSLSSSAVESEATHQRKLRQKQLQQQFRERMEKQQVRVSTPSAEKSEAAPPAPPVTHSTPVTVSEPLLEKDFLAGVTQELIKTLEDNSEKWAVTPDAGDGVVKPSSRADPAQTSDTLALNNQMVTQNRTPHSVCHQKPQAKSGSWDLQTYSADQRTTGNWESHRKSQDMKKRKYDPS
# [12] = target: Kallikrein-7 (Homo sapiens, UniProt P49862); experiment: Fluorescence Intensity-based biochemical primary high throughput dose response assay to identify activators of kallikrein-7 (K7) zymogen.
# [13] = target: Ras and Rab interactor 1/Tyrosine-protein kinase ABL1 (Homo sapiens, UniProt P00519+Q13671); format: functional;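 also: biochemical TR-FRET dose-response test measuring inhibition of binding between Rin1 and Abl proteins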
# [14] = target: T3, Apoptotic protease-activating factor 1; experiment: SAR analysis of small molecule Activators of Apaf-1 in a Fluorescent assay.; format: functional; conditions: read-out: EC50_Mean
# [15] = target: Beta-galactosidase (Escherichia coli, UniProt Q8VNN2); experiment: PubChem AID 485352; format: functional
# [16] = target: T6, Type-1 angiotensin II receptor (Homo sapiens, UniProt P30556); experiment: antagonism of angiotensin II type 1 receptor – cell-based, uHTS hits, selectivity assay for APJ receptor antagonist project, dose response (AID 463214); format: functional;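 also: antagonist potency against angiotensin II stimulated AT1 response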
# T6 sequence (P30556 whole entry): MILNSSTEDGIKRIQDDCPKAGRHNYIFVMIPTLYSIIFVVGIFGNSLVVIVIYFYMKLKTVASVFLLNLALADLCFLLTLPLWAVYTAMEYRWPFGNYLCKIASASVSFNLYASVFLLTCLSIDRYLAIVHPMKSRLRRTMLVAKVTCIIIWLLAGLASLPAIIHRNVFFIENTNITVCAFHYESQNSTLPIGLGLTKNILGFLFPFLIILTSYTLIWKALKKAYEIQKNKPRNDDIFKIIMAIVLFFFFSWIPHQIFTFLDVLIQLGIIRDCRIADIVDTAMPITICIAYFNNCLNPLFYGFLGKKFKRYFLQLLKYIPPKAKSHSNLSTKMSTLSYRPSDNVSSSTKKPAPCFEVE
# [17] = luciferase reporter signal suppression in cells – H4 neuroglioma cells, luminescence, dose response (AID 1990); format: functional, cell-based
# [18] = Luminescence Cell-Based Dose Response HTS to Identify Inhibitors of 5'UTR Stem-Loop Driven Prion Protein mRNA Translation in H4 Neuroglioblastoma Cells. [Related pubchem assays: 1827 (Project Summary), 1813 (Primary HTS)]; format: functional
# [19] = alpha-synuclein stem-loop luciferase translation blockers – H4 neuroglioma cells, luminescence, confirmation (AID 1988); format: functional, cell-based
# [20] = target: Cytochrome P450 2C19 (Homo sapiens, UniProt P33261); experiment: Cytochrome panel assay with activity outcomes. Panel member name: p450-cyp2c19 Compounds with AC50 equal or less than 10 uM are considered active; format: functional; conditions: read-out: AC50
# [21] = activation of miR-122 Renilla sensor silencing – cell-based, Huh7 psiCHECK-miR122, Renilla luciferase, cherry-picked, dose response (AID 651956); format: functional;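 also: huh7 hepatoma cells stably carrying a psiCHECK-2 miR-122 sensor plasmid; renilla luciferase signal reporting endogenous miR-122 activity after 48 h compound exposure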
# [22] = target: Cytochrome P450 2C9 (Homo sapiens, UniProt P11712)
# Sequence of Cytochrome P450 2C9 (P11712 whole entry): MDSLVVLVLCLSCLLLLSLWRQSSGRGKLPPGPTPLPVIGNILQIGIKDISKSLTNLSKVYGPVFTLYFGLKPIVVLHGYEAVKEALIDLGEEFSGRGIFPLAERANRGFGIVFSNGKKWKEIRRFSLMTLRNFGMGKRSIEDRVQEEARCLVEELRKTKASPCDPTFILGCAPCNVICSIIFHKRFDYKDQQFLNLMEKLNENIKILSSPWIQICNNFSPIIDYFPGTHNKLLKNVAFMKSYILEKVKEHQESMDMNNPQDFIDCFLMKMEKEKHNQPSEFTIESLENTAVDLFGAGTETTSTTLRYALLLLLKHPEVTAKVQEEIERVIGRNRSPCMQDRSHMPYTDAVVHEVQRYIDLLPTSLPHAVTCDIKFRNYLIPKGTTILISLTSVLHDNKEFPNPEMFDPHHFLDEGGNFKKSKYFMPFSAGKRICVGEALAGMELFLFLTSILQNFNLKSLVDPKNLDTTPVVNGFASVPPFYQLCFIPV
# Sequence of Ras and Rab interactor 1/Tyrosine-protein kinase ABL1 (P00519 whole entry): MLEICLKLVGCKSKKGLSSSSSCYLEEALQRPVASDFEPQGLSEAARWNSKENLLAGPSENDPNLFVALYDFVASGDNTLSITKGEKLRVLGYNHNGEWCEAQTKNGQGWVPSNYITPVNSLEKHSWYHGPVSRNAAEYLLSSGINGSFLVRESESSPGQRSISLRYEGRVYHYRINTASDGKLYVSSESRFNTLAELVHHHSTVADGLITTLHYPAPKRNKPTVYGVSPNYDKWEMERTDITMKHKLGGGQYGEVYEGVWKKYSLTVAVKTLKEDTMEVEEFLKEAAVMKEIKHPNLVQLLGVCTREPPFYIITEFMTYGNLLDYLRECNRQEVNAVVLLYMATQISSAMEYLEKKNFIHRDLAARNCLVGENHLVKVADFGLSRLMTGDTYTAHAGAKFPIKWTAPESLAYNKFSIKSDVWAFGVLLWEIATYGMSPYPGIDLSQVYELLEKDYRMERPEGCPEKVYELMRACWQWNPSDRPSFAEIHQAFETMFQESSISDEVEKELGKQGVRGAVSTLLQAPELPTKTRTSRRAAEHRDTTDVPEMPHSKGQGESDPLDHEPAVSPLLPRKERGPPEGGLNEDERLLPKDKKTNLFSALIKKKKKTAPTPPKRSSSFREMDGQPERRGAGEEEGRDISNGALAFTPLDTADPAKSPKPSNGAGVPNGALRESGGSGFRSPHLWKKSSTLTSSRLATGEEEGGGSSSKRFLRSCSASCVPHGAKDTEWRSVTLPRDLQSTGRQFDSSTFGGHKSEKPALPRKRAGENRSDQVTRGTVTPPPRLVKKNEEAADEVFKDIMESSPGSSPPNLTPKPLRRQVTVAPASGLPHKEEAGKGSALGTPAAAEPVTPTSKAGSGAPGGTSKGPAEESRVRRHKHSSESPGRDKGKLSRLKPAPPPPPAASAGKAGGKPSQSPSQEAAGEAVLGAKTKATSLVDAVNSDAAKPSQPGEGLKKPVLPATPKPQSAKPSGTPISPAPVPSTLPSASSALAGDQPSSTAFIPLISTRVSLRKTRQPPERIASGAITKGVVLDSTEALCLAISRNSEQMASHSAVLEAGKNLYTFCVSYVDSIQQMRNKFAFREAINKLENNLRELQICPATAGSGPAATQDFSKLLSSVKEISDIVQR
# Sequence of Ras and Rab interactor 1/Tyrosine-protein kinase ABL1 (Q13671 whole entry): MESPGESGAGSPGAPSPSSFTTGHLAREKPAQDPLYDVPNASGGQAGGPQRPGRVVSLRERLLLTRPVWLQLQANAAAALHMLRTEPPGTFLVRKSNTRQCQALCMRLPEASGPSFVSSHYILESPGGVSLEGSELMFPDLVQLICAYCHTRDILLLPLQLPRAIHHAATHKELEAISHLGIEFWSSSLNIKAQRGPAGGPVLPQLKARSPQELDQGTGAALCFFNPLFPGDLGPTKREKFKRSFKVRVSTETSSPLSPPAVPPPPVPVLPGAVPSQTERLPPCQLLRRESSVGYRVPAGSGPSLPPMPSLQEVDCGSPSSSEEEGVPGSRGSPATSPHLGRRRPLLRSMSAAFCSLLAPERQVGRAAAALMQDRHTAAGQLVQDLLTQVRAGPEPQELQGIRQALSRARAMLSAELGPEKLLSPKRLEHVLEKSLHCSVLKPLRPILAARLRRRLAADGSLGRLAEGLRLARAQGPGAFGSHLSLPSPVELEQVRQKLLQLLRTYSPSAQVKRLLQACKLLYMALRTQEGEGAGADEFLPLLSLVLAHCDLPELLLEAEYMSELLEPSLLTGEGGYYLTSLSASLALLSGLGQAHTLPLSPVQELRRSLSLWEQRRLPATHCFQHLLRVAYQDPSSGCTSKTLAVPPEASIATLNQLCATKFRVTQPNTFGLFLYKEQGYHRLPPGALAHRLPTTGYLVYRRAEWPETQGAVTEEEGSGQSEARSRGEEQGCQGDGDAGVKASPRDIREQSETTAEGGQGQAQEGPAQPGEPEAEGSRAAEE
# Sequence of Beta-galactosidase (Q8VNN2 whole entry): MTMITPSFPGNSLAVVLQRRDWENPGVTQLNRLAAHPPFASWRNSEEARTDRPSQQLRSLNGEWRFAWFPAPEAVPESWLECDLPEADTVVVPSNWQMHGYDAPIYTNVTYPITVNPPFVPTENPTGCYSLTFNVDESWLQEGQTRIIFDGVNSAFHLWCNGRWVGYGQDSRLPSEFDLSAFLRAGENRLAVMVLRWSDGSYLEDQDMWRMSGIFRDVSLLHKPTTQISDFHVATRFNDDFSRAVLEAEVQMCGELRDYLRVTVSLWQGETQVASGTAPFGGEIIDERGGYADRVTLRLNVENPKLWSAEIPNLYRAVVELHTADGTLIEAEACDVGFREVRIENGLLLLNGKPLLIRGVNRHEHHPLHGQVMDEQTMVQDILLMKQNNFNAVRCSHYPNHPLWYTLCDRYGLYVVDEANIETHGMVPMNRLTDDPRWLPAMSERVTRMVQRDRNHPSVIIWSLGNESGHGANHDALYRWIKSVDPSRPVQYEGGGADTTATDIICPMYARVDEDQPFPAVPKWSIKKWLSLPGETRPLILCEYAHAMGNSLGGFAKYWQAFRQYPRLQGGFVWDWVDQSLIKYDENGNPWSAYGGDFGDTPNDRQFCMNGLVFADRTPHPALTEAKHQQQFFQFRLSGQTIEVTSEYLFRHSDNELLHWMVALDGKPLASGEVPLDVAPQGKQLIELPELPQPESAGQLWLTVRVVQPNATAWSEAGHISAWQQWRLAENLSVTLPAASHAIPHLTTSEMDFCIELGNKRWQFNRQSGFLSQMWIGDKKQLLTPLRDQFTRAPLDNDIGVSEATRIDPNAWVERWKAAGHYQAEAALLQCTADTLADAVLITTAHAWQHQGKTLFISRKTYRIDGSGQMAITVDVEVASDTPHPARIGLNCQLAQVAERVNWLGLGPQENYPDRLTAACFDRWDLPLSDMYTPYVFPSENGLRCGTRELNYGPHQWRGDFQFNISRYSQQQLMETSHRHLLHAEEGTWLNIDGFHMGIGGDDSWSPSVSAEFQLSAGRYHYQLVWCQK
# Sequence of Kallikrein-7 (P49862 whole entry): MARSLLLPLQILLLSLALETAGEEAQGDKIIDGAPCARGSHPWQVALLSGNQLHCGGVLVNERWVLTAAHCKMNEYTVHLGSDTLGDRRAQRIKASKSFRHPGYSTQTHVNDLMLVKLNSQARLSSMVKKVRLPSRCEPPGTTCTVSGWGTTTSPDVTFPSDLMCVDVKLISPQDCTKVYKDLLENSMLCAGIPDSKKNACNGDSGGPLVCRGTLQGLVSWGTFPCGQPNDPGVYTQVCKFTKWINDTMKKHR
# Sequence of Cytochrome P450 2C19 (P33261 whole entry): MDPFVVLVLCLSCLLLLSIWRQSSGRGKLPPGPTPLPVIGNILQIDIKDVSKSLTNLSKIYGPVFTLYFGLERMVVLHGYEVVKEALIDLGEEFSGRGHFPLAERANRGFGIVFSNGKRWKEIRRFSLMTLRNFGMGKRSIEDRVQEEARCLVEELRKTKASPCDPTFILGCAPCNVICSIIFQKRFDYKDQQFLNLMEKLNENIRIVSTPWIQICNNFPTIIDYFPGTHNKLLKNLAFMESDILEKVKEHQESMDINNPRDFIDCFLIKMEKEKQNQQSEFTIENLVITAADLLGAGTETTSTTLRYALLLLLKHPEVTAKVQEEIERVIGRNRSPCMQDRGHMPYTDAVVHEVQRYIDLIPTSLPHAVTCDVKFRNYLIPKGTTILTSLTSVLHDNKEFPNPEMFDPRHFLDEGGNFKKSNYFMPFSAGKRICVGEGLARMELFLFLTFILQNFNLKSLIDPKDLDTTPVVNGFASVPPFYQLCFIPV
# Sequence of Glucose-6-phosphate 1-dehydrogenase (P11413 whole entry): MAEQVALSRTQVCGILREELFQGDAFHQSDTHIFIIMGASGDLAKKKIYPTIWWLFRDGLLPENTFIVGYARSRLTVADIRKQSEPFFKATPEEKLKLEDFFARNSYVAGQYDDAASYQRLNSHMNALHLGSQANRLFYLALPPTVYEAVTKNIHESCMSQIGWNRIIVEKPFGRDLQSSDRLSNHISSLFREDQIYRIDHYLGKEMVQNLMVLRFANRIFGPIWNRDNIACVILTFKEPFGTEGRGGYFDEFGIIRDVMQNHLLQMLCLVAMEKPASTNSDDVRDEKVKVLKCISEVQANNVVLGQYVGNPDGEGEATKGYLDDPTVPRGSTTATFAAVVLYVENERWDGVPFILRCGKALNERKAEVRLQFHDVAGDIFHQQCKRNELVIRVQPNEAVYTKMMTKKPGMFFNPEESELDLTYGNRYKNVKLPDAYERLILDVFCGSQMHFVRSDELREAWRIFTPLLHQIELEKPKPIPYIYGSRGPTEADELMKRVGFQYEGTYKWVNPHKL
structure (smiles),measurement,setting,value
CN(C)/C=C1/Oc2c(ccc3ccccc23)C1=O,IC50,[1],> 66.2 µM (inactive)
same,IC50,[2],> 49.7 µM (inactive)
same,IC50,[3],2.06 µM (active)
same,IC50,[4],33.3 µM (inactive)
same,IC50,[5],> 88.8 µM (inactive)
same,IC50,[6],18.3 µM (inactive)
CN(C)/C=N/c1ccc2[nH]c3c4ccccc4nc-3cc2c1,IC50,[7],> 80 µM (inactive)
same,IC50,[8],30.7 µM (active)
same,CC50,[9],100 µM (active)
same,IC50,[10],52.8 µM (active)
same,AC50,[11],3.13 µM (active)
same,EC50,[12],> 2.57 µM (active)
CC(C)n1cc(CN2CCC(C(=O)Nc3cccc(-c4cscn4)c3)CC2)cn1,IC50,[13],54.5 µM (inactive)
O=C(O)c1coc(-c2ccc(Cl)cc2)n1,EC50,[14],> 100 µM (inactive)
CN(/N=C/c1cc([N+](=O)[O-])ccc1O)c1ccccc1,EC50,[15],> 40 µM (inactive)
same,IC50,[16],> 40 µM (not active)
same,IC50,[1],> 66.2 µM (inactive)
same,IC50,[2],> 49.7 µM (inactive)
same,IC50,[3],2.39 µM (active)
same,IC50,[4],2.48 µM (active)
same,IC50,[5],> 88.8 µM (inactive)
same,IC50,[6],> 50 µM (inactive)
CN(C)CCNc1ncnc2c1sc1nc(N3CCOCC3)c3c(c12)CC(C)(C)SC3,EC50,[17],8.43 µM (active)
same,EC50,[18],23.9 µM (active)
same,EC50,[19],8.17 µM (active)
same,AC50,[20],31.6 µM (inconclusive)
same,IC50,[13],13.7 µM (inactive)
same,AC50,[21],12.9 µM (active)
same,AC50,[22],25.1 µM (inconclusive)
COC(=O)c1coc(-c2ccc(Cl)cc2)n1,EC50,[14],> 100 µM (inactive)

# Source: ChEMBL document CHEMBL1201862, “PubChem BioAssay data set” (2004)
